Targets include HLA-DR DRB3*0101 (DR52) (Homo sapiens, UniProt P01903+P79483); HLA-DR DRB1*0802 (DR8) (Homo sapiens, UniProt P01903+P01911, A100R/A103L/A169T/F76Y/H45Y/I96F/K41T/L162R/M171V/P40S/Q125H/Q178H/Q39Y/Q99D/R218S/R42G/S66Y/V115G/W38E); HLA-DR DRB1*0301 (DR3) (Homo sapiens, UniProt P01903+P01911, A100K/A102G/A103R/A169T/F55Y/I96L/K41T/L162R/M171V/P40S/Q125H/Q178H/Q39Y/R42S/S66N/T106N/T262R/W38E/Y61H).

What all share (experiment): biochemical
Holding throughout (assay type): binding

Another test deals with HLA-DR DRB5*0101 (DR51) (Homo sapiens, UniProt P01903+Q30154). Particulars: DRB5 *0101.
The next test has as its target HLA-DR DRB1*1302 (DR13) (Homo sapiens, UniProt P01903+P01911, A100E/A169T/K41T/L162R/M171V/P40S/Q125H/Q178H/Q39Y/Q99D/R42S/S66N/T262R/V115G/W38E/Y61H). Particulars: DRBI *1302.
The target in the next test is HLA-DR DRB1*0401 (DR4) (Homo sapiens, UniProt P01903+P01911, A100K/A169T/F76Y/I96L/K127E/L162R/M171V/N62H/P40V/Q125Y/R42H/S133A/S149N/S66Y/V115G/V209L/W38E). Particulars: DRB1 *0401.
Another test addresses HLA-DR DRB1*0405 (DR4) (Homo sapiens, UniProt P01903+P01911, A100R/A169T/D86S/F76Y/I96L/K127E/L162R/M171V/N62H/P40V/Q125Y/R42H/S133A/S149N/S66Y/V115G/V209L/W38E). Particulars: DRB1 *0405.
In the next test the target is HLA-DR DRB1*1101 (DR11) (Homo sapiens, UniProt P01903+P01911, A100R/A169T/A87E/I96F/K41T/L162R/M171V/P40S/Q125H/Q178H/Q39Y/Q99D/R42S/S66Y/T262R/V115G/W38E). Particulars: DRB1 *1101.
HLA-DR DRB1*1101 (DR11), sequence (P01903 26-254 limits assumed, other chains not shown): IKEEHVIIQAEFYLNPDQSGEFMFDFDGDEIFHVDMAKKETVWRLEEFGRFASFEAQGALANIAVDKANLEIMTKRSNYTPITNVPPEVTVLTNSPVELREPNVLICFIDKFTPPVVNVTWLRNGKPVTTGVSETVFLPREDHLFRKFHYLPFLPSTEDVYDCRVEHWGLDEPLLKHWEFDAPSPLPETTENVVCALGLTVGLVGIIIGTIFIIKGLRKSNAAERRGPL
The target of a further test is HLA-DR DRB4*0101 (DR53) (Homo sapiens, UniProt P01903+P13762, G164S). Particulars: DRB4 *0101.
Another test has as its target HLA-DR DRB1*1501 (DR15) (Homo sapiens, UniProt P01903+P01911). Particulars: DRBI *1501.
The next test has as its target HLA-DR DRB1*0701 (DR7) (Homo sapiens, UniProt P01903+P01911, A100R/A102G/A103Q/D57E/D86V/E43K/F76Y/K127E/L162R/M171V/P40G/Q125H/Q99D/R33Q/R42Y/R54Q/S133A/S66F/T210M/V115G/Y107V/Y59L/Y89S). Conditions: DRB1 *0701.
The next test has as its target HLA-DR DRB1*0101 (DR1) (Homo sapiens, UniProt P01903+P01911, A100R/D57E/F55L/F60I/F76Y/I96L/L162R/M171V/P40L/Q125E/R42F/V115G/Y59C). Conditions: DRB1 *0101.

No end group written: not given here.

HLA-DR DRB1*1302 (DR13), sequence (P01903 26-254 limits assumed, other chains not shown): as above
HLA-DR DRB1*0301 (DR3), sequence (P01903 26-254 limits assumed, other chains not shown): as above

Usually IC50 stands for the concentration at which inhibition is half-maximal. Lower therefore signals higher potency. For LFFYRKSVWSKLQSI, the IC50 was 0.018 µM at HLA-DR DRB5*0101 (DR51); 5.91 µM against HLA-DR DRB3*0101 (DR52); 0.121 µM against HLA-DR DRB1*1302 (DR13); 0.065 µM against HLA-DR DRB1*0802 (DR8); 0.913 µM against HLA-DR DRB1*0401 (DR4); 0.084 µM at HLA-DR DRB1*0405 (DR4). The concentration for half-maximal inhibition (IC50) at HLA-DR DRB1*1101 (DR11) was found to be 0.012 µM; on HLA-DR DRB4*0101 (DR53), 1.93 µM; at HLA-DR DRB1*0301 (DR3), 30.2 µM; at HLA-DR DRB1*1501 (DR15) it was 0.02 µM; at HLA-DR DRB1*0701 (DR7), 0.084 µM; against HLA-DR DRB1*0101 (DR1) it was 0.019 µM.
Turning to QTQKLLWQLNGRLEY, the IC50 is 6.58 µM at HLA-DR DRB3*0101 (DR52); 0.121 µM against HLA-DR DRB1*1302 (DR13); 2.04 µM against HLA-DR DRB1*0802 (DR8); 0.055 µM on HLA-DR DRB1*0401 (DR4); 0.086 µM at HLA-DR DRB1*0405 (DR4); 20.7 µM against HLA-DR DRB1*1101 (DR11). For the same sequence, the IC50 on HLA-DR DRB4*0101 (DR53) was 0.088 µM; at HLA-DR DRB1*0301 (DR3) it was 3.55 µM; against HLA-DR DRB1*1501 (DR15), 0.02 µM; at HLA-DR DRB1*0701 (DR7), 3.1 µM; on HLA-DR DRB1*0101 (DR1), 0.032 µM.
Turning to LGFLQRSSNCQSQKL, the IC50 is 0.508 µM against HLA-DR DRB5*0101 (DR51); more than 1750 µM at HLA-DR DRB3*0101 (DR52); 0.131 µM at HLA-DR DRB1*1302 (DR13); 0.405 µM against HLA-DR DRB1*0802 (DR8); 0.0081 µM on HLA-DR DRB1*0401 (DR4); 0.228 µM against HLA-DR DRB1*0405 (DR4). Moreover, the concentration for half-maximal inhibition (IC50) was 0.604 µM on HLA-DR DRB1*1101 (DR11), 0.124 µM against HLA-DR DRB4*0101 (DR53), 4.89 µM at HLA-DR DRB1*0301 (DR3) and 0.305 µM against HLA-DR DRB1*0701 (DR7).
For the sequence YLVCGERGFFYTDKT, the half-inhibitory concentration (IC50) was more than 28.4 µM against HLA-DR DRB5*0101 (DR51); 0.616 µM against HLA-DR DRB3*0101 (DR52); 1.01 µM against HLA-DR DRB1*1302 (DR13); more than 54.4 µM on HLA-DR DRB1*0802 (DR8); more than 20.5 µM against HLA-DR DRB1*0401 (DR4); more than 30.1 µM against HLA-DR DRB1*0405 (DR4). Besides, the half-maximal inhibitory concentration (IC50) at HLA-DR DRB1*1101 (DR11) is more than 60.6 µM; against HLA-DR DRB4*0101 (DR53) it was 48.1 µM; on HLA-DR DRB1*0301 (DR3), 11.8 µM; on HLA-DR DRB1*1501 (DR15), more than 25.6 µM; on HLA-DR DRB1*0701 (DR7), 92.3 µM.
Turning to SNLELLRICLLLIQS, the IC50 is more than 11.8 µM against HLA-DR DRB5*0101 (DR51); 17 µM against HLA-DR DRB3*0101 (DR52); 0.773 µM against HLA-DR DRB1*1302 (DR13); 19.8 µM against HLA-DR DRB1*0802 (DR8); 1.11 µM at HLA-DR DRB1*0405 (DR4); more than 15.4 µM against HLA-DR DRB1*1101 (DR11). Besides, the 50% inhibitory concentration (IC50) at HLA-DR DRB4*0101 (DR53) was found to be 0.164 µM; against HLA-DR DRB1*0301 (DR3) it was 61.9 µM; at HLA-DR DRB1*1501 (DR15) it was 0.09 µM; at HLA-DR DRB1*0701 (DR7), 1.22 µM.
As for SFLQNPQTSLTFSES, the 50% inhibitory concentration (IC50) was 0.864 µM against HLA-DR DRB3*0101 (DR52); 0.121 µM at HLA-DR DRB1*1302 (DR13); more than 33.3 µM against HLA-DR DRB1*0802 (DR8); 7.78 µM on HLA-DR DRB1*0401 (DR4); 9.56 µM against HLA-DR DRB1*0405 (DR4); more than 15.4 µM against HLA-DR DRB1*1101 (DR11). Also, the concentration for half-maximal inhibition (IC50) against HLA-DR DRB1*0301 (DR3) worked out at 2.39 µM; against HLA-DR DRB1*1501 (DR15) it was 1.51 µM; at HLA-DR DRB1*0701 (DR7), 6.2 µM.
In the case of RPIVNMDYVVGARTFRREKR, the IC50 is 0.0066 µM on HLA-DR DRB5*0101 (DR51); 3.32 µM at HLA-DR DRB3*0101 (DR52); 0.073 µM at HLA-DR DRB1*1302 (DR13); 0.748 µM on HLA-DR DRB1*0802 (DR8); 0.0031 µM at HLA-DR DRB1*0401 (DR4); 0.812 µM at HLA-DR DRB1*0405 (DR4). Besides, the half-inhibitory concentration (IC50) against HLA-DR DRB4*0101 (DR53) worked out at 0.16 µM; against HLA-DR DRB1*0301 (DR3), 0.022 µM; against HLA-DR DRB1*1501 (DR15), 0.043 µM; against HLA-DR DRB1*0701 (DR7), 0.346 µM; against HLA-DR DRB1*0101 (DR1) it was 0.029 µM.
In the case of RSSNCQSQKLLWQLN, the half-maximal inhibitory concentration (IC50) on HLA-DR DRB3*0101 (DR52) is 68.8 µM; against HLA-DR DRB1*1302 (DR13), 1.96 µM; on HLA-DR DRB1*0802 (DR8), 6.94 µM; against HLA-DR DRB1*0401 (DR4) it was 0.595 µM; against HLA-DR DRB1*0405 (DR4), 4.01 µM; against HLA-DR DRB1*1101 (DR11) it was more than 60.6 µM. The IC50 turned out to be 0.027 µM at HLA-DR DRB4*0101 (DR53), 57.9 µM at HLA-DR DRB1*0301 (DR3), 2.96 µM at HLA-DR DRB1*1501 (DR15) and 2.05 µM against HLA-DR DRB1*0101 (DR1).
In the case of FTRGKRMSSLHLKRY, the 50% inhibitory concentration (IC50) turned out to be 0.084 µM against HLA-DR DRB5*0101 (DR51); 18.8 µM at HLA-DR DRB3*0101 (DR52); 10.2 µM against HLA-DR DRB1*1302 (DR13); 0.553 µM against HLA-DR DRB1*0802 (DR8); 1.01 µM at HLA-DR DRB1*0401 (DR4); 0.484 µM against HLA-DR DRB1*0405 (DR4). In addition, the IC50 on HLA-DR DRB1*1101 (DR11) turned out to be 0.081 µM; against HLA-DR DRB4*0101 (DR53), 2.03 µM; on HLA-DR DRB1*0301 (DR3), 3.3 µM; against HLA-DR DRB1*0101 (DR1), 0.013 µM.

(Values after patent US20060079453A1, “Hla binding peptides and their uses” (priority 2002, published 2006).)
